Target: T1, human RXFP1 (Homo sapiens, UniProt Q9HBX9)
T1 construct: expressed in transfected cells
T1 sequence (Q9HBX9 1-757): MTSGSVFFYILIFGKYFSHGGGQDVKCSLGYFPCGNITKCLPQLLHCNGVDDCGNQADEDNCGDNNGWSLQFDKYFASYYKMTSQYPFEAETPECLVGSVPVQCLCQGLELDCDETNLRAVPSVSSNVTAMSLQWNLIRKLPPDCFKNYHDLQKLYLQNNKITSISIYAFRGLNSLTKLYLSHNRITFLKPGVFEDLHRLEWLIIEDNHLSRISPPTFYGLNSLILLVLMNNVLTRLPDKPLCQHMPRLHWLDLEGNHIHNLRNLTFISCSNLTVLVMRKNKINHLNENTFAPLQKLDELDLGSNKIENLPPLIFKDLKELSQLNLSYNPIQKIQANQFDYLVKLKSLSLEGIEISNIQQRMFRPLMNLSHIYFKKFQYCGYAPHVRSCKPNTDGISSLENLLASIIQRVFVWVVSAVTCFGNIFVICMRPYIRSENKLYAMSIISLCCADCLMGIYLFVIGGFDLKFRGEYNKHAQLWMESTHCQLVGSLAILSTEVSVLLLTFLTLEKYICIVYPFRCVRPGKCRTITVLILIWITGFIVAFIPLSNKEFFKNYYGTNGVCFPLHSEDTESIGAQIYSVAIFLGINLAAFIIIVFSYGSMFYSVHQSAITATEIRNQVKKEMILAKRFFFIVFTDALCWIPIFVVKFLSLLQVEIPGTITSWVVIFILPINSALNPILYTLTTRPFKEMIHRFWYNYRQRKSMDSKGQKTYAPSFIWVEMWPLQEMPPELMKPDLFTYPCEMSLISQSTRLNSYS
Test: RXFP1 cAMP assay (hRXFP1 HEK293 cAMP assay, HTRF)
Format: cell-based
Conditions: HEK293 cells stably expressing human RXFP1, 30 min at room temperature, read-out: cAMP hRXFP1 HEK293 Assay EC50
Description: RXFP1 Cyclic Adenosine Monophosphate (cAMP) Assays. […] Cells were dissociated and suspended in assay buffer. The assay buffer was HBSS buffer (with calcium and magnesium) containing 20 mM HEPES, 0.05% BSA, and 0.5 mM IBMX. Cells (3000 cells per well, except 1500 cell per well for HEK293 cells stably expressing human RXFP1) were added to 384-well Proxiplates (Perkin-Elmer). Cells were immediately treated with test compounds in DMSO (2% final) at final concentrations in the range of 0.010 nM to 50 μM. Cells were incubated for 30 min at room temperature. The level of intracellular cAMP was determined using the HTRF HiRange cAMP assay reagent kit (Cisbio) according to manufacturer's instructions. Solutions of cryptate conjugated anti-cAMP and d2 fluorophore-labelled cAMP were made in a supplied lysis buffer separately. Upon completion of the reaction, the cells were lysed with equal volume of the d2-cAMP solution and anti-cAMP solution. […] The potency and activity of a compound to […] cAMP production was then determined by fitting to a 4-parametric logistic equation from a plot of cAMP level versus compound concentrations.

Row | SMILES | EC50 [µM]
1 | COc1ccc(-c2cc(C(F)F)ccc2F)cc1C(=O)N[C@@H]1C2CCC(/C2=C/C2CC2)[C@@H]1C(=O)Nc1ccc(F)c(C(F)(F)F)c1 (stereo partly drawn) [compound 280] | 0.012
2 | COC(=O)NC(C(=O)O)c1ccc(F)c(-c2ccc(OC)c(C(=O)N[C@@H]3C4CCC(/C4=C/C(F)(F)F)[C@@H]3C(=O)Nc3ccc(F)c(C(F)(F)F)c3)c2)c1 (stereo partly drawn) [compound 185] | 0.015
3 | COc1ccc(-c2cc(C(=O)O)ccc2F)cc1C(=O)NC1C2CCC(/C2=C/c2cn(C[Si](C)(C)C)nn2)[C@@H]1C(=O)Nc1ccc(F)c(C(F)(F)F)c1 (stereo partly drawn) [Example 325] | 4.83
4 | COc1ccc(C2=NOC3CC(CO)CC23)cc1C(=O)N[C@H]1[C@@H](C(=O)Nc2ccc(F)c(C(F)(F)F)c2)[C@H]2CC[C@@H]1/C2=C\C(C)C (stereo partly drawn) [compound 454] | 0.0019
5 | C=C/C=C1\C2CCC1[C@H](C(=O)Nc1ccc(F)c(C(F)(F)F)c1)[C@@H]2NC(=O)c1cc(-c2cc(C(=O)O)ccc2F)ccc1OC (stereo partly drawn) [compound 158] | 0.1
6 | COc1ccc(-c2cccc(C(F)(F)F)n2)cc1C(=O)N[C@@H]1C2CCC(/C2=C/C2CC2)[C@@H]1C(=O)Nc1ccc(F)c(C(F)(F)F)c1 (stereo partly drawn) [compound 283] | 0.069
7 | COc1cc(F)c(F)cc1C(=O)N[C@@H]1C2CCC(/C2=C/c2cccc(OC(F)F)c2)[C@@H]1C(=O)Nc1ccc(F)c(C(F)(F)F)c1 (stereo partly drawn) [compound 27] | 0.38
8 | C=C(C)/C=C1\C2CCC1[C@H](C(=O)Nc1ccc(F)c(C(F)(F)F)c1)[C@@H]2NC(=O)c1cc(F)c(F)cc1OC (stereo partly drawn) [compound 43] | 0.07
9 | COc1ccc(-c2cc(C(=O)O)ccc2F)cc1C(=O)N[C@@H]1C2CCC(/C2=C/C(=O)N2CC(F)(F)C2)[C@@H]1C(=O)Nc1ccc(F)c(C(F)(F)F)c1 (stereo partly drawn) [compound 324] | 2.24
10 | COc1ccc(C2=NOC3CC(CO)CC23)cc1C(=O)N[C@H]1[C@@H](C(=O)Nc2ccc(F)c(C(F)(F)F)c2)[C@H]2CC[C@@H]1/C2=C\C1CC1 (stereo partly drawn) [Example 429, (1R,2S,3R,4R,Z)-7-(cyclopropylmethylene)-N-(4-fluoro-3-(trifluoromethyl)phenyl)-3-(5-(5-(hydroxymethyl)-3a,5,6,6a-tetrahydro-4H-cyclopenta[d]isoxazol-3-yl)-2-methoxybenzamido)bicyclo[2.2.1]heptane-2-carboxamide] | 0.002
11 | CN(C)c1ccc(C2=NOC3COCC23)cc1C(=O)N[C@H]1[C@@H](C(=O)Nc2ccc(F)c(C(F)(F)F)c2)[C@H]2CC[C@@H]1/C2=C\C(F)(F)F (single isomer, unassigned) [compound 518] | 0.0184
12 | COc1ccc(-c2ccc3c(C(=O)OCc4ccccc4)cnn3c2)cc1C(=O)N[C@@H]1C2CCC(/C2=C/C(F)(F)F)[C@@H]1C(=O)Nc1ccc(F)c(C(F)(F)F)c1 (stereo partly drawn) [compound 316] | 0.081
13 | COc1ccc(-c2cc(C(OC(=O)NC3COC3)C(F)(F)F)ccc2F)cc1C(=O)N[C@@H]1C2CCC(/C2=C/C2CC2)[C@@H]1C(=O)Nc1ccc(F)c(C(F)(F)F)c1 (stereo partly drawn) [compound 218] | 0.002
14 | COc1ccc(C2CCN(C(=O)C(C)(C)O)C2)cc1C(=O)N[C@@H]1C2CCC(C2=CC2CC2)[C@@H]1C(=O)Nc1ccc(F)c(C(F)(F)F)c1 (stereo partly drawn) [compound 555] | 0.0414
15 | COc1ccc(-c2cc(C(F)(F)F)ccc2F)cc1C(=O)N[C@@H]1C2CCC(/C2=C/C2CC(F)(F)C2)[C@@H]1C(=O)Nc1ccc(F)c(C(F)(F)F)c1 (stereo partly drawn) [compound 289] | 0.548
16 | COc1ccc(-c2cc(C(OC(=O)NC3CCCC3)C(F)(F)F)ccc2F)cc1C(=O)N[C@@H]1C2CCC(/C2=C/C2CC2)[C@@H]1C(=O)Nc1ccc(F)c(C(F)(F)F)c1 (stereo partly drawn) [compound 219] | 0.003
17 | COc1ccc(-c2cc(C(=O)NS(C)(=O)=O)ccc2F)cc1C(=O)N[C@@H]1C2CCC(/C2=C/Br)[C@@H]1C(=O)Nc1ccc(F)c(C(F)(F)F)c1 (stereo partly drawn) [compound 161] | 0.11
18 | COc1ccc(C2=NOC3CS(=O)(=O)CC23)cc1C(=O)N[C@@H]1C2CCC(/C2=C/C2CC2)[C@@H]1C(=O)Nc1ccc(F)c(C(F)(F)F)c1 (single isomer, unassigned) [compound 444] | 0.41
19 | COc1cc(F)c(F)cc1C(=O)N[C@@H]1C2CCC(/C2=C\Br)[C@@H]1C(=O)Nc1ccc(F)c(C(F)(F)F)c1 (stereo partly drawn) [compound 10] | 1.1
20 | COc1ccc(Br)cc1C(=O)N[C@@H]1C2CCC(/C2=C\c2ccccc2)[C@@H]1C(=O)Nc1ccc(F)c(C(F)(F)F)c1 (stereo partly drawn) [Example 78] | 1.9
21 | COc1ccc(-c2cc(C(OC(=O)Nc3ccccc3)C(F)(F)F)ccc2F)cc1C(=O)N[C@@H]1C2CCC(/C2=C/C2CC2)[C@@H]1C(=O)Nc1ccc(F)c(C(F)(F)F)c1 (single isomer, unassigned) [compound 224] | 0.002
22 | COc1ccc(-c2cc(C(OC(=O)NC(C)(C)C)C(F)(F)F)ccc2F)cc1C(=O)N[C@@H]1C2CCC(/C2=C/C2CC2)[C@@H]1C(=O)Nc1ccc(F)c(C(F)(F)F)c1 (stereo partly drawn) [compound 210] | 0.001
23 | COc1ccc(-c2cc(CC(=O)O)ccc2F)cc1C(=O)N[C@@H]1C2CCC(/C2=C/C2CC2)[C@@H]1C(=O)Nc1ccc(F)c(C(F)(F)F)c1 (stereo partly drawn) [compound 189] | 0.01
24 | COc1ccc(C2=NOC3COCC23)cc1C(=O)N[C@H]1[C@@H](C(=O)NCC2(C)CCC2)[C@H]2CC[C@@H]1/C2=C\C1CC1 (stereo partly drawn) [compound 477] | 0.0064
25 | COc1ccc(-c2cc([C@H](OC(=O)NC3CCC3)C(F)(F)F)ccc2F)cc1C(=O)N[C@@H]1C2/C(=C\C(F)(F)F)C(C(O)C2O)[C@@H]1C(=O)Nc1ccc(F)c(C(F)(F)F)c1 (stereo partly drawn) [Example 348] | 1.31
26 | COc1cc(F)c(C2=NOC3COCC23)cc1C(=O)N[C@@H]1C2CCC(/C2=C/C2CC2)[C@@H]1C(=O)Nc1ccc(F)c(C(F)(F)F)c1 (stereo partly drawn) [compound 420] | 0.001
27 | CNC(=O)/C=C1\C2CCC1[C@H](C(=O)Nc1ccc(F)c(C(F)(F)F)c1)[C@@H]2NC(=O)c1cc(F)c(F)cc1OC (stereo partly drawn) [compound 73] | 2.4

The remaining lines, values ahead:

Row | EC50 [µM] | SMILES
28 | 1.96 | COc1ccc(C2CCCN2C(=O)OC(C)(C)C)cc1C(=O)N[C@@H]1C2CCC(/C2=C/C2CC2)[C@@H]1C(=O)Nc1ccc(F)c(C(F)(F)F)c1 (single isomer, unassigned) [compound 715]
29 | 0.133 | CCC(CC)NC(=O)[C@@H]1[C@H](NC(=O)c2cc(C3=NOC4COCC34)ccc2OC)[C@@H]2CC[C@H]1/C2=C/C1CC1 (stereo partly drawn) [compound 611]
30 | 0.0449 | COc1ccc(C2=NOC3COCC23)cc1C(=O)N[C@H]1[C@@H](C(=O)NC2CC=CC2)[C@H]2CC[C@@H]1/C2=C\C1CC1 (stereo partly drawn) [compound 559]
31 | 1.05 | COc1ccc([C@@]2(O)CO[C@@H]3[C@@H](O)CO[C@@H]32)cc1C(=O)N[C@H]1[C@@H](C(=O)Nc2ccc(F)c(C(F)(F)F)c2)[C@H]2CC[C@@H]1/C2=C\C1CC1 [compound 700]
32 | 0.0048 | COc1ccc(-c2cnn3c2CC(O)CC3)cc1C(=O)N[C@H]1[C@@H](C(=O)N[C@@H](C)C2(C)CC2)[C@H]2CC[C@@H]1/C2=C\C1CC1 (stereo partly drawn) [compound 871]
33 | 0.163 | COc1ccc([C@@H]2CO[C@H]3[C@@H]2OC[C@H]3O)cc1C(=O)N[C@H]1[C@@H](C(=O)Nc2ccc(F)c(C(F)(F)F)c2)[C@H]2CC[C@@H]1/C2=C\C1CC1 [compound 620]
34 | 0.0022 | COc1ccc(-c2cc(C(COC(=O)NC3CCC3)C(F)(F)F)ccc2F)cc1C(=O)N[C@H]1[C@@H](C(=O)Nc2ccc(F)c(C(F)(F)F)c2)[C@H]2CC[C@@H]1/C2=C\C1CCCC1 (stereo partly drawn) [compound 893]
35 | 0.0028 | COc1ccc(C2=NOC3CC(C(=O)O)CC23)cc1C(=O)N[C@H]1[C@@H](C(=O)Nc2ccc(F)c(C(F)(F)F)c2)[C@H]2CC[C@@H]1/C2=C\C1CC1 (stereo partly drawn) [compound 851]
36 | 0.278 | CCC(NC(=O)[C@@H]1[C@H](NC(=O)c2cc(C3=NOC4COCC34)ccc2OC)[C@@H]2CC[C@H]1/C2=C/C1CC1)c1ccccc1C (single isomer, unassigned) [compound 652]
37 | 4.18 | COc1ccc(C2=NOC3COCC23)cc1C(=O)N[C@H]1[C@@H](C(=O)NCc2ccn(C)n2)[C@H]2CC[C@@H]1/C2=C\C1CC1 (stereo partly drawn) [compound 722]
38 | 0.0099 | COc1ccc(-c2ccc(C(CC(=O)O)C(F)(F)F)cc2F)cc1C(=O)N[C@H]1[C@@H](C(=O)Nc2ccc(F)c(C(F)(F)F)c2)[C@H]2CC[C@@H]1/C2=C\C1CCCC1 (stereo partly drawn) [compound 892]
39 | 0.0015 | COc1ccc(-c2cc(C3=NOC4CC(CO)CC34)ccc2F)cc1C(=O)N[C@H]1[C@@H](C(=O)Nc2ccc(F)c(C(F)(F)F)c2)[C@H]2CC[C@@H]1/C2=C\C1CCCC1 (stereo partly drawn) [compound 952]
